# Data reported in patent publication US7087584B2, “Detection and modulation of IAPs and NAIP for the diagnosis and treatment of proliferative disease” (Aegera Therapeutics Inc., priority 1997, dated 2006).
# Columns and labels:
# [1] = test system: Cisplatin-sensitive (OV2008) human ovarian epithelial cells; test: Apoptosis (nuclear staining, DNA ladders, TUNEL) in cisplatin-sensitive ovarian cancer cells; type: cell-based; conditions: for incidence of apoptosis: cisplatin 0-30 μM or taxol 0-1.0 μM, up to 48 hours
# Procedure: (§1) Cisplatin-sensitive (OV2008) and -resistant (C13) human ovarian epithelial cells were cultured in a chemically-defined medium at 37° C. for up to 48 hours in the presence or absence of TGFβ (20 ng/ml), taxol (0–1.0 μM) or cisplatin (0–30 μM). At the end of the culture period, cells were either fixed for immunocytochemistry and TUNEL analyses, or snap frozen for subsequent extraction for IAP mRNA and proteins analyses.
# (§2) Human ovarian epithelial cancer cells were fixed (4% formalin in PBS; 10 min. RT), washed in PBS, resuspended in Hoescht 33248 stain (0.1 μg/ml PBS, 10 min) washed again and spotted onto slides for microscopy. Nuclear staining was observed and photographed using a Zeiss fluorescent microscope equipped with an FITC filter. Apoptotic cells were identified by typical nuclear morphology, and counted using randomly selected fields and numbered photographic slides to avoid bias during counting.
# Cellular DNA was extracted using the Qiagen Blood Amt kit. DNA was quantified by ethidium bromide fluorescence. DNA (0.5 μg) was then end labelled by incubating (20 min, RT) with Klenow enzyme (2 U in 10 mM Tris+5 mM MgCl2) and 0.1 μCi [α32P]dCTP. Unincorporated nucleotides were removed with the Qiagen nucleotide removal kit and samples were resolved by Tris-acetate-EDTA agarose (1.8%) gel electrophoresis. The gel was then dried (2 hr, no heat) and exposed to a Bio-Rad phosphoimager screen to densitometrically quantify low molecular weight DNA (<15 kBp) and subsequently to x-ray film at −80° C.
# To identify cell death using the in situ cell death detection kit (Boehringer-Mannheim), slides prepared for histology were treated (20 min. 37° C.) with terminal tranferase in the presence of FITC-conjugated dUTP.
# HIAP-2 mRNA in C13 cells = test: Northern blot for HIAP-2 mRNA in C13 cells; type: cell-based, human
# Procedure: as §1
# (§3) Total RNA from ovarian surface epithelial cancer cells by using RNeasy Kit (Qiagen). The RNA samples (10–15 μg) were quantified spectrophotometrically and size-fractioned by electrophoresis on formaldehyde-agarose gels (1.1%) containing 1 μg/ml ethidium bromide to confirm even loading of RNA samples and adequate separation of 28S and 18S ribosomal bands. The RNAs bands were blotted onto a nylon membrane and cross-linked by UV light. Membranes were prehybridized in 50% formamide, saline sodium citrate (SSC; 750 mM NaCl, 75 mM Na citrate), 1×Denhardt's solution, 1% SDS, 4 mM EDTA and 100 μg/ml sheared salmon sperm DNA for 4 h at 42° C. Hybridization was performed overnight at 42° C. with 20 million cpm of ^32P-labelled IAP cDNA probes (rat Naip, rat Xiap or human Hiap-2) added to the prehybridization buffer. […] Data were normalized by the respective 28S and expressed as a percentage of the control (defined as 100%).
# [2] = test system: XIAP protein in OV2008 cells; test: Western blot for XIAP protein in OV2008 cells; type: cell-based, human
# Procedure: as §1
# (§4) Protein extracts were prepared from human surface epithelial cancer cells sonicated (8 s/cycle, 3 cycles) on ice in sucrose buffer (0.25 M sucrose, 0.025 M NaCl, 1 mM EGTA and 15 mM Tris-HCl pH 6.8, supplemented with 1 mM PMSF, 2 μg/ml of leupeptin and 5 μg/ml of aprotinin. The sonicates were centrifuged at 13,000×g for 10 min, the supernatants were collected and stored at −20° C. until electrophoretic analyses were performed. Protein concentration was determined by Bio-Rad Protein Assay. Proteins (10–30 μg) were resolved by one-dimensional SDS-PAGE, and electrophoretically transferred to nitrocellulose membrane. Membranes were blocked with 5% non-fat milk, and subsequently incubated with rabbit polyclonal antibody for IAP anti-human Hiap-2ΔE(960529; 1:1000 dilution), anti-human NAIP E1.0 (951015; 1:1000 dilution) or anti-human Xiap (1:1000 dilution) diluted in TBST (10 mM Tris-buffered saline, 0.1% Tween-20, pH 7.5) containing 5% milk. […]
# [3] = test system: XIAP protein in C13 cells; test: Western blot for XIAP protein in C13 cells; type: cell-based, human
# Procedure: as §1, §4
# [4] = test system: HIAP-2 mRNA in OV2008 cells; test: Northern blot for HIAP-2 mRNA in OV2008 cells; type: cell-based, human
# Procedure: as §1, §3
# [5] = test system: HIAP-2 protein in OV2008 cells; test: Western blot for HIAP-2 protein in OV2008 cells; type: cell-based, human
# Procedure: as §1, §4
# [6] = test system: HIAP-2 protein in C13 cells; test: Western blot for HIAP-2 protein in C13 cells; type: cell-based, human
# Procedure: as §1, §4
# HeLa cells = test: Apoptosis and 26 kDa xiap cleavage product (Western blot) in HeLa cells; type: cell-based, human; conditions: 18 hours; for 26 kDa xiap cleavage product: HeLa cells, cycloheximide 20 μg/ml, TNFα 1,000 U/ml, anti-Fas antibody 1 μg/ml; for apoptosis of HeLa cells: cycloheximide 20 μg/ml or TNFα 1,000 U/ml alone
# Procedure: A 26 kDa xiap-reactive band was also observed under the following experimental conditions. Jurkat cells (a transformed human T cell line) were induced to undergo apoptosis by exposure to an anti-Fas antibody (1 μg/ml). Identical cultures of Jurkat cells were exposed either to: (1) anti-Fas antibody and cycloheximide (20 μg/ml), (2) tumor necrosis factor alpha (TNF-α, at 1,000 U/ml), or (3) TNF-α and cycloheximide (20 μg/ml). All cells were harvested 6 hours after treatment began. In addition, as a negative control, anti-Fas antibody was added to an extract after the cells were harvested. The cells were harvested in SDS sample buffer, electrophoresed on a 12.5% SDS polyacrylamide gel, and electroblotted onto PVDF membranes using standard methods. The membranes were immunostained with a rabbit polyclonal anti-xiap antibody at 1:1000 for 1 hour at room temperature. Following four 15 minute washes, a goat anti-rabbit antibody conjugated to horse-radish peroxidase was applied at room temperature for 1 hour. Unbound secondary antibody was washed away, and chemiluminescent detection of xiap protein was performed. […] In addition, a novel, approximately 26 kDa xiap-reactive band was also observed in apoptotic cell extracts, but not in the control, untreated cell extracts (FIG. 13).
# Cleavage of xiap occurs in a variety of cell types, including other cancer cell lines such as HeLa. […] HeLa cells were treated with either: (1) cyclohexamide (20 μg/ml), (2) anti-Fas antibody (1 μg/ml), (3) anti-Fas antibody (1 μg/ml) and cyclohexamide (20 μg/ml), (4) TNFα (1,000 U/ml), or (5) TNFα (1,000 U/ml) and cyclohexamide (20 μg/ml). All cells were harvested 18 hours after treatment began. As above, anti-Fas antibody was added to an extract after the cells were harvested. HeLa cells were harvested, and the Western blot was probed under the same conditions as used to visualize xiap-reactive bands from Jurkat cell samples. A 26 kDa xiap band was again seen in the apoptotic cell preparations (FIG. 14). Furthermore, the degree of xiap cleavage correlated positively with cellular exposure to apoptotic triggers.
# The time course over which the 26 kDa cleavage product accumulates was examined by treating HeLa and Jurkat cells with anti-Fas antibody (1 μg/ml) and harvesting them either immediately, or 1, 2, 3, 5, 10, or 22 hours after treatment. Protein extracts were prepared and Western blot analysis was performed as described above.
# [7] = test system: Cisplatin-resistant (C13) human ovarian epithelial cells; test: Apoptosis (nuclear staining, DNA ladders, TUNEL) in cisplatin-resistant ovarian cancer cells; type: cell-based; conditions: TGFβ 20 ng/ml
# Procedure: as §1, §2
# Cellular DNA was extracted using the Qiagen Blood Amt kit. DNA was quantified by ethidium bromide fluorescence. DNA (0.5 μg) was then end labelled by incubating (20 min, RT) with Klenow enzyme (2 U in 10 mM Tris+5 mM MgCl2) and 0.1 μCi [α32P]dCTP. […] The gel was then dried (2 hr, no heat) and exposed to a Bio-Rad phosphoimager screen to densitometrically quantify low molecular weight DNA (<15 kBp) and subsequently to x-ray film at −80° C. […]
compound,measurement,setting,value
"N.N.[Cl][Pt][Cl] [Cisplatin, cisplatin]",incidence of apoptosis,[1],concentration-dependent increase
CC(=O)O[C@H]1C(=O)[C@@]2(C)[C@H]([C@H](OC(=O)c3ccccc3)[C@]3(O)C[C@H](OC(=O)[C@H](O)[C@@H](NC(=O)c4ccccc4)c4ccccc4)C(C)=C1C3(C)C)[C@]1(OC(C)=O)CO[C@@H]1C[C@@H]2O [Taxol],incidence of apoptosis,[1],induced apoptosis
same,suppression of HIAP-2 mRNA abundance,"HIAP-2 mRNA in C13 cells; cisplatin-resistant cells, Taxol 0.2 μM",ineffective
same,XIAP protein level,"[2]; OV2008 cells, Taxol 0.04-1.0 μM, concentration-dependent, more pronounced than in resistant cells",decreased
same,XIAP protein level,"[3]; C13 cells, Taxol 0.04-1.0 μM, concentration-dependent, less pronounced than in sensitive cells",decreased
same,suppression of HIAP-2 mRNA abundance,"[4]; cisplatin-sensitive cells, Taxol 0.2 μM",approx. 80%
same,content of approx. 45 kDa immunoreactive fragment of HIAP-2,[5]; Taxol,decreased
same,HIAP-2 protein level,"[5]; Taxol 0.04-1.0 μM, concentration-dependent, more pronounced than in resistant cells",decreased
same,content of approx. 45 kDa immunoreactive fragment of HIAP-2,[6]; Taxol,increased
same,HIAP-2 protein level,"[6]; Taxol 0.04-1.0 μM, concentration-dependent, less pronounced than in sensitive cells",decreased
C[C@@H]1C[C@@H]([C@H](O)CC2CC(=O)NC(=O)C2)C(=O)[C@@H](C)C1 [cycloheximide],26 kDa xiap cleavage product,HeLa cells,little cleavage product
same,apoptosis of HeLa cells,HeLa cells,only minor apoptosis
TGFβ: TGFβ (20 ng/ml) added to ovarian cancer cell cultures,induction of apoptosis,[1]; TGFβ 20 ng/ml,induced apoptosis
same,HIAP-2 mRNA,"HIAP-2 mRNA in C13 cells; C13 cells, TGFβ 20 ng/ml",not C13
same,influence on Xiap protein content,"[2]; cisplatin-sensitive cells, TGFβ 20 ng/ml",markedly suppressed
same,influence on Xiap protein content,"[3]; cisplatin-resistant cells, TGFβ 20 ng/ml",only marginal
same,HIAP-2 mRNA,"[4]; OV2008 cells, TGFβ 20 ng/ml",decreased
same,induction of apoptosis,[7],not in C13
TNFα,26 kDa xiap cleavage product,HeLa cells,little cleavage product
same,apoptosis of HeLa cells,HeLa cells,only minor apoptosis
